*1 amine or outer side, *2 acyl side, *3 side chain or, on linkers, in order; H or OH if unused. Where a SMILES comes first, the peptide text is derived from it. [ ]: non-standard residue; d: D form. Trp(4-Cl)(βS-Me) = C[C@@H](c1c[nH]c2cccc(Cl)c12)[C@H](N)C(=O)O; Trp(βS-Me,4-F) = C[C@@H](c1c[nH]c2cccc(F)c12)[C@H](N)C(=O)O; Bip(4'-COOH) = N[C@@H](Cc1ccc(-c2ccc(C(=O)O)cc2)cc1)C(=O)O; X1 = CC(=O)N1CCN(c2ccc(C[C@H](N[*:1])C(=O)[*:2])cn2)CC1; 1Nal(3S-Me) = C[C@@H](c1cccc2ccccc12)[C@H](N)C(=O)O; Phe(4-COOH) = N[C@@H](Cc1ccc(C(=O)O)cc1)C(=O)O; Trp(6-F) = N[C@@H](Cc1c[nH]c2cc(F)ccc12)C(=O)O; Trp(7-aza) = N[C@@H](Cc1c[nH]c2ncccc12)C(=O)O; X14 = C[N+](C)(C)CC[C@@H](N[*:1])C(=O)[*:2]; h3Pal(5-CN) = N#Cc1cncc(CC[C@H](N)C(=O)O)c1; Pro(4R-NH2) = N[C@H]1CN[C@H](C(=O)O)C1; X7 = O=C([C@H](CCN1CCOCC1)N[*:1])[*:2]; AEF = NCCOc1ccc(C[C@H](N)C(=O)O)cc1; hTyr = N[C@@H](CCc1ccc(O)cc1)C(=O)O; hCha = N[C@@H](CCC1CCCCC1)C(=O)O; hPhe = N[C@@H](CCc1ccccc1)C(=O)O; dNva = CCC[C@@H](N)C(=O)O; dNMeA = CN[C@H](C)C(=O)O; Dap = NC[C@H](N)C(=O)O
The compounds below were run against T1, Recombinant human IL-1β (Homo sapiens, UniProt P01584) (assay: IL-6 assay in MRC5 cells: inhibition of IL-1β induced IL-6 secretion (AlphaLISA)). Conditions: inhibition of IL-1β induced IL-6 secretion in MRC5 cells; read-out: MRC5 IC50.
T1 construct: purchased BioLegend 579404
T1 sequence (P01584 117-269): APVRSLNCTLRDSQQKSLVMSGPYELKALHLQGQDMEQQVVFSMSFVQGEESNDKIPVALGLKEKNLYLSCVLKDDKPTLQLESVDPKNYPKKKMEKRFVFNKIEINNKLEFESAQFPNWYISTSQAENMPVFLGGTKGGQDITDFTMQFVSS
Assay type: cell-based
Description: Procedure for IL-6 Assay in MRC5 Cells
The inhibition of IL-1β induced IL-6 secretion was evaluated in MRC5 cells. Recombinant human IL-1β (BioLegend 579404) at 2×EC80 concentration was prepared in seeding medium, EMEM (ATCC 30-2003) with 0.025% BSA (Sigma A9576), 1× penicillin/streptomycin (Gibco 15070-063), 1×NEAA (Gibco 11140-050), 1× GlutaMax (Gibco 35050-061), and 1× sodium pyruvate (Gibco 11360-070). 20 μL of IL-1β was added to a 384-well collagen-coated plate (Corning 354664) and pre-incubated at ambient temperature for 1 hour with 200 nL of compound dispensed using an ECHO 555 liquid handler. Human lung fibroblast MRC5 cells (ATCC CCL-171) were added at a density of 3000 cells/20 μL per well. The cells were prepared by passaging three times in growth medium, EMEM (ATCC 30-2003) with 10% fetal bovine serum (Gibco 16140-071), 1× penicillin/streptomycin (Gibco 15070-063), 1×NEAA (Gibco 11140-050), 1× GlutaMax (Gibco 35050-061), and 1× sodium pyruvate (Gibco 11360-070) in collagen-coated T175 flasks (Greiner 661950) and harvested in seeding medium after 5 minutes of 0.25% trypsin-EDTA (Gibco 25200-056) digestion. The 384-well collagen-coated plate, containing a final volume of 40 μL, was incubated at 37° C., 5% CO2 overnight. 5 μL of the conditioned medium was transferred to a 384-well AlphaLISA plate (PerkinElmer 6005350) for detection of IL-6 using the human AlphaLISA IL-6 kit (PerkinElmer AL223F) as per the manufacturer's protocol. 20 μL of the acceptor bead/biotinylated antibody mix was added to the 384-well AlphaLISA plate and incubated for 1 hour at ambient temperature. The donor bead mix was protected from light and 25 μL was added to the plate and incubated for 30 minutes at ambient temperature. The AlphaLISA plate was read on an EnVision multimode plate reader (Perkin Elmer model 2104) using the AlphaScreen setting (laser exc at 680 nm and emis at 570 nm). Dose response curves and IC50 values were analyzed using a 4-parameter logistic equation in Spotfire software (Tibco, Palo Alto, CA).

SMILES | IC50 [nM]
CC(=O)NCCOc1ccc(C[C@@H]2NC(=O)[C@H](CCc3ccc(O)cc3)NC(=O)[C@@H](C)NC(=O)[C@H](CN)NC(=O)[C@H](Cc3c[nH]c4ccccc34)NC(=O)[C@H](Cc3ccc(-c4ccc(C(=O)O)cc4)cc3)NC(=O)CNC(=O)[C@@H](C)N(C)C(=O)[C@H](CC(N)=O)NC(=O)[C@H]([C@@H](C)c3cccc4ccccc34)NC(=O)[C@@H]3C[C@@H](N)CN3C(=O)CNC(=O)[C@H](Cc3ccc(C(=O)O)cc3)NC(=O)[C@H](Cc3c[nH]c4ccccc34)NC2=O)cc1 [Example 129] (cyclo([AEF](Ac)W[Phe(4-COOH)]G[Pro(4R-NH2)][1Nal(3S-Me)]N[dNMeA]G[Bip(4'-COOH)]W[Dap][dA][hTyr])) | 0.0828
CC(=O)NCCOc1ccc(C[C@@H]2NC(=O)CNC(=O)[C@@H](C)NC(=O)[C@H](CCN3CCOCC3)NC(=O)[C@H](Cc3c[nH]c4ccccc34)NC(=O)[C@H](Cc3ccc(-c4ccc(C(=O)O)cc4)cc3)NC(=O)CNC(=O)[C@@H](C)N(C)C(=O)[C@H](CC(=O)O)NC(=O)[C@H]([C@@H](C)c3c[nH]c4cccc(F)c34)NC(=O)[C@@H]3C[C@@H](N)CN3C(=O)CNC(=O)[C@H](Cc3ccc(C(=O)O)cc3)NC(=O)[C@H](Cc3c[nH]c4ccccc34)NC2=O)cc1 [Example 162] (cyclo([AEF](Ac)W[Phe(4-COOH)]G[Pro(4R-NH2)][Trp(βS-Me,4-F)]D[dNMeA]G[Bip(4'-COOH)]W[X7][dA]G)) | 0.749
COC[C@@H]1NC(=O)[C@H](Cc2c[nH]c3ccccc23)NC(=O)[C@H](Cc2ccc(-c3ccc(C(=O)O)cc3)cc2)NC(=O)CNC(=O)[C@@H](C)N(C)C(=O)[C@H](CC(=O)O)NC(=O)[C@H]([C@@H](C)c2c[nH]c3cccc(Cl)c23)NC(=O)[C@@H]2C[C@@H](N)CN2C(=O)CNC(=O)[C@H](Cc2ccc(C(=O)O)cc2)NC(=O)[C@H](Cc2c[nH]c3ccccc23)NC(=O)[C@H](Cc2ccc(OCCNC(C)=O)cc2)NC(=O)[C@H](CCc2ccccc2)NC(=O)[C@@H](C)NC1=O [Example 152] (cyclo([AEF](Ac)W[Phe(4-COOH)]G[Pro(4R-NH2)][Trp(4-Cl)(βS-Me)]D[dNMeA]G[Bip(4'-COOH)]WS(Me)[dA][hPhe])) | 0.06
CC(=O)NCCOc1ccc(C[C@@H]2NC(=O)[C@H](CCc3ccc(O)cc3)NC(=O)[C@@H](CO)NC(=O)[C@H](CC(C)C)NC(=O)[C@H](CCCCN)NC(=O)[C@H](Cc3ccc(-c4ccc(C(=O)O)cc4)cc3)NC(=O)CNC(=O)[C@@H](C)N(C)C(=O)[C@H](CC(=O)O)NC(=O)[C@H]([C@@H](C)c3c[nH]c4cccc(F)c34)NC(=O)[C@@H]3C[C@@H](N)CN3C(=O)CNC(=O)[C@H](Cc3ccc(C(=O)O)cc3)NC(=O)[C@H](Cc3c[nH]c4ccccc34)NC2=O)cc1 [Example 161] (cyclo([AEF](Ac)W[Phe(4-COOH)]G[Pro(4R-NH2)][Trp(βS-Me,4-F)]D[dNMeA]G[Bip(4'-COOH)]KL[dS][hTyr])) | 0.483

Further lines, results first:

IC50 [nM] | SMILES
0.018 | CC(=O)NCCOc1ccc(C[C@@H]2NC(=O)[C@H](CCC3CCCCC3)NC(=O)[C@@H](CC[N+](C)(C)C)NC(=O)[C@H](CO)NC(=O)[C@H](Cc3c[nH]c4ncccc34)NC(=O)[C@H](Cc3ccc(-c4ccc(C(=O)O)cc4)cc3)NC(=O)CNC(=O)[C@@H](C)N(C)C(=O)[C@H](CC(=O)O)NC(=O)[C@H]([C@@H](C)c3cccc4ccccc34)NC(=O)[C@@H]3C[C@@H](N)CN3C(=O)CNC(=O)[C@H](Cc3ccc(C(=O)O)cc3)NC(=O)[C@H](Cc3c[nH]c4cc(F)ccc34)NC2=O)cc1 [Example 213] (cyclo([AEF](Ac)[Trp(6-F)][Phe(4-COOH)]G[Pro(4R-NH2)][1Nal(3S-Me)]D[dNMeA]G[Bip(4'-COOH)][Trp(7-aza)]S[X14][hCha]))
0.021 | CCC[C@H]1NC(=O)[C@H](CC(C)C)NC(=O)[C@H](CCCCN)NC(=O)[C@H](Cc2ccc(-c3ccc(C(=O)O)cc3)cc2)NC(=O)CNC(=O)[C@@H](C)N(C)C(=O)[C@H](CC(=O)O)NC(=O)[C@H]([C@@H](C)c2cccc3ccccc23)NC(=O)[C@@H]2C[C@@H](N)CN2C(=O)CNC(=O)[C@H](Cc2ccc(C(=O)O)cc2)NC(=O)[C@H](Cc2c[nH]c3ccccc23)NC(=O)[C@H](Cc2ccc(N3CCN(C(C)=O)CC3)nc2)NC(=O)[C@H](CCc2cncc(C#N)c2)NC1=O [Example 180] (cyclo([X1]W[Phe(4-COOH)]G[Pro(4R-NH2)][1Nal(3S-Me)]D[dNMeA]G[Bip(4'-COOH)]KL[dNva][h3Pal(5-CN)]))

From patent US20230406885A1, “CYCLIC PEPTIDES FOR TRAPPING INTERLEUKIN-1 BETA” (MERCK SHARP & DOHME LLC, priority 2022, published 2023)
